Measurements reported in publication PMC4008786, “Molecular Characterization, Expression Pattern, and Ligand-Binding Property of Three Odorant Binding Protein Genes from Dendrolimus tabulaeformis” (Journal of Chemical Ecology, 2014).
Like-named read-outs stand apart in the source and are kept apart here.

Legend:
DtabGOBP1 [1] = target: T1, DtabGOBP1 (Dendrolimus tabulaeformis, UniProt A0A059PCQ9); assay: Competitive fluorescence binding assay (displacement of 1-NPN), DtabGOBP1; details: for abnormal fluorescence binding curve (in words): 1-NPN fluorescence on addition of ligand
T1 sequence (A0A059PCQ9 entry or part of it): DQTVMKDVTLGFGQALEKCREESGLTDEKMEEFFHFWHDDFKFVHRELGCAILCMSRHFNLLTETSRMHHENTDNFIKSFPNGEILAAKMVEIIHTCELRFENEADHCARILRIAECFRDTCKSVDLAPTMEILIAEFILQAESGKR
Method: (§1) Emission fluorescence spectra were performed on an F-4500 fluorescence Spectrophotometer (Hitachi, Japan) at 25 °C with a 1 cm light path quartz cuvette and 5 nm slits for both excitation and emission. The protein was dissolved in 50 mM Tris–HCl buffer, pH 7.4, while ligands used in the binding assay were added as 1 mM methanol solutions. The fluorescence of the mixture was recorded after 5 min to allow the signal to stabilize.
(§2) To measure the affinity of the fluorescent ligand 1-NPN to DtabPBP1, DtabGOBP1, and DtabGOBP2, a 2 μM solution of the protein in 50 mM Tris–HCl, pH 7.4, was titrated with aliquots of 1 mM 1-NPN dissolved in methanol to a final concentration of 16 μM. The probe was excited at 337 nm, and emission spectra were recorded between 380 and 450 nm. To evaluate the effect of pH on the binding affinity of the three OBPs, we also measured their binding with 1-NPN at a pH range of 4.5–9.0. The displacement of 1-NPN by selected ligands was measured in competitive binding assays using both the protein and 1-NPN at 2 μM. The mixtures were titrated with 1 mM methanol solutions of each competitor over concentration ranges of 2–16 μM. The fluorescence of the mixture was recorded after 5 min. Dissociation constants for 1-NPN and the stoichiometry of binding were obtained from Scatchard plots of the binding data through processing the data with Prism software. For other competitor ligands, the dissociation constants were calculated from the corresponding IC50 values using the equation: Ki = [IC50]/(1 + [1 − NPN]/K1 − NPN), where [1-NPN] is the free concentration of 1-NPN and K1-NPN is the dissociation constant of the protein complex/1-NPN.
(§3) To understand the ligand binding properties of the three OBPs, we prepared the recombinant proteins. Figure S5 reports the expression and purification of them. Then, we performed competitive ligand-binding experiments using well established protocols for other insect OBPs (Ban et al. [2002], [2003b]; Guo et al. [2012]; He et al. [2010]; Zhou et al. [2009]) to investigate the specificity of the binding pocket in the three D. tabulaeformis OBPs. The probe was excited at 337 nm, and emission spectra were recorded between 380 and 450 nm. […] The three proteins DtabPBP1, DtabGOBP1, and DtabGOBP2 bind 1-NPN with dissociation constants 12.5 ± 1.7, 14.4 ± 2.6, and 8.5 ± 0.6, respectively (Fig. 4a).

DtabPBP1 [2] = target: T2, DtabPBP1 (Dendrolimus tabulaeformis, UniProt A0A059PCM8); assay: Competitive fluorescence binding assay (displacement of 1-NPN), DtabPBP1
T2 sequence (A0A059PCM8 entry or part of it): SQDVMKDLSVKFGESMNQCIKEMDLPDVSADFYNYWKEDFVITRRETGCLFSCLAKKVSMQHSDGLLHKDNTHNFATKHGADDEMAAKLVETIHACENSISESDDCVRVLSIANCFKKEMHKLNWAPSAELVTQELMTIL
Method: as §1, §2, §3

DtabGOBP2 [3] = target: T3, DtabGOBP2 (Dendrolimus tabulaeformis, UniProt A0A059PCR0); assay: Competitive fluorescence binding assay (displacement of 1-NPN), DtabGOBP2
T3 sequence (A0A059PCR0 entry or part of it): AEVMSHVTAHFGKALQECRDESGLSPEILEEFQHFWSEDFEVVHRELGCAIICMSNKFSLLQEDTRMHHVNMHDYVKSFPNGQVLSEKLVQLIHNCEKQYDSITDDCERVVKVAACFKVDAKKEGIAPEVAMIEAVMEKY
Method: as §1, §2, §3

DtabPBP1 [4] = target: T2, DtabPBP1; assay: Fluorescence titration of protein with 1-NPN (Scatchard plot), DtabPBP1; assay type: binding
Method: as §1
(§4) To measure the affinity of the fluorescent ligand 1-NPN to DtabPBP1, DtabGOBP1, and DtabGOBP2, a 2 μM solution of the protein in 50 mM Tris–HCl, pH 7.4, was titrated with aliquots of 1 mM 1-NPN dissolved in methanol to a final concentration of 16 μM. The probe was excited at 337 nm, and emission spectra were recorded between 380 and 450 nm. To evaluate the effect of pH on the binding affinity of the three OBPs, we also measured their binding with 1-NPN at a pH range of 4.5–9.0. The displacement of 1-NPN by selected ligands was measured in competitive binding assays using both the protein and 1-NPN at 2 μM. The mixtures were titrated with 1 mM methanol solutions of each competitor over concentration ranges of 2–16 μM. The fluorescence of the mixture was recorded after 5 min. […]
(§5) To understand the ligand binding properties of the three OBPs, we prepared the recombinant proteins. […] The probe was excited at 337 nm, and emission spectra were recorded between 380 and 450 nm. […]

DtabGOBP2 [5] = target: T3, DtabGOBP2; assay: Fluorescence titration of protein with 1-NPN (Scatchard plot), DtabGOBP2; assay type: binding
Method: as §1, §4, §5

DtabGOBP1 [6] = target: T1, DtabGOBP1; assay: Fluorescence titration of protein with 1-NPN (Scatchard plot), DtabGOBP1; assay type: binding
Method: as §1, §4, §5

[7] = DtabGOBP1, 1-NPN fluorescence at ligand max conc 16, protein and 1-NPN at 2 μM, pH 7.4, read-out: %of max±SE
[8] = DtabPBP1, 1-NPN fluorescence at ligand max conc 16, protein and 1-NPN at 2 μM, pH 7.4, read-out: %of max±SE
[9] = DtabGOBP2, 1-NPN fluorescence at ligand max conc 16, protein and 1-NPN at 2 μM, pH 7.4, read-out: %of max±SE
[10] = DtabGOBP1, 1-NPN fluorescence at ligand max conc 16, protein and 1-NPN at 2 μM, pH 7.4
[11] = DtabPBP1, 1-NPN fluorescence at ligand max conc 16, protein and 1-NPN at 2 μM, pH 7.4
[12] = DtabGOBP2, 1-NPN fluorescence at ligand max conc 16, protein and 1-NPN at 2 μM, pH 7.4
[13] = 2 μM protein, 50 mM Tris–HCl pH 7.4, Scatchard plot, read-out: dissociation constant (Kd) of 1-NPN
[14] = pH 4.5–9.0, protein and 1-NPN at 2 μM

| Compound | activity at 16 µM (DtabGOBP1 [1]; [7]) | activity at 16 µM (DtabPBP1 [2]; [8]) | activity at 16 µM (DtabGOBP2 [3]; [9]) | %of max±SE (DtabGOBP1 [1]; [10]) | %of max±SE (DtabPBP1 [2]; [11]) | %of max±SE (DtabGOBP2 [3]; [12]) | also measured |
| --- | --- | --- | --- | --- | --- | --- | --- |
| CC1=CCC(=C(C)C)CC1 [Terpinolene, terpinolene] | 100 ± 3.2% | 90.3 ± 0.2% | 85.3 ± 1.8% |  |  |  |  |
| CC1=CCC2CC1C2(C)C (stereo not drawn) [(-)-α-Pinene, (−)-α-pinene] |  |  |  | 96.4±0.3% | 85.4±0.4% | 90.8±0.4% |  |
| CC/C=C\CCO [(Z)-3-Hexen-1-ol, (Z)-3-hexen-1-ol] |  |  |  |  |  |  | activity at 16 µM (DtabGOBP1 [1]; pH 7.4, read-out: %of max±SE): 96.5 ± 1.4%; activity at 16 µM (DtabPBP1 [2]; pH 7.4, read-out: %of max±SE): 94.6 ± 0.2%; activity at 16 µM (DtabGOBP2 [3]; pH 7.4, read-out: %of max±SE): 90.8 ± 0.6% |
| CCCC/C=C/C=C\CCCCO [Z5,E7-12:OH, (5Z,7E)-5,7-dodecadien-1-ol] | 81 ± 1% | 74.5 ± 0.6% | 65.6 ± 0.8% |  |  |  |  |
| CC1=CCC(C(C)C)=CC1 [γ-Terpinene, γ-terpinene] |  |  |  |  |  |  | inhibition at 16 µM (DtabGOBP1 [1]; pH 7.4, read-out: 1-NPN displaced): 30%; activity at 16 µM (DtabGOBP1 [1]; pH 7.4, read-out: %of max±SE): 71.8 ± 0.7%; activity at 16 µM (DtabPBP1 [2]; pH 7.4, read-out: %of max±SE): 88.1 ± 0.3%; activity at 16 µM (DtabGOBP2 [3]; pH 7.4, read-out: %of max±SE): 99.3 ± 0.4% |
| CCCCCC/C=C\CCCCOC(C)=O [Z5-12:OAc, (Z)-5-dodecenyl acetate] |  |  | 66.6 ± 0.7% | Abnormal | Abnormal |  | abnormal fluorescence binding curve (in words) (DtabGOBP1 [1]; DtabGOBP1): increase in fluorescence at high concentrations |
| CCCCCC/C=C\CCCCO [Z5-12:OH, (Z)-5-dodecenyl alcohol] | 77.2 ± 0.3% | 75.1 ± 0.2% | 67 ± 0.5% |  |  |  |  |
| CC1=CC=C(C(C)C)CC1 [α-Terpinene, α-terpinene] |  |  |  |  |  |  | activity at 16 µM (DtabGOBP1 [1]; pH 7.4, read-out: %of max±SE): 81.8 ± 1.3%; activity at 16 µM (DtabPBP1 [2]; pH 7.4, read-out: %of max±SE): 86.7 ± 0.7%; activity at 16 µM (DtabGOBP2 [3]; pH 7.4, read-out: %of max±SE): 93.2 ± 0.9% |
| C=CC(=C)CCC=C(C)C [β-Myrene, β-myrene] |  |  |  | 67.8±0.8% | 86.5±0.8% | 83.3±0.7% | 1-NPN displaced (DtabGOBP1 [1]; DtabGOBP1, at a max concentration of ligand): 30% |
| (+)-α-pinene |  |  |  | 98.3±2.2% | 83.9±0.3% | 88.8±2.2% |  |
| CCCC/C=C/C=C\CCCCOC(=O)CC [Z5,E7-12:OPr, (5Z,7E)-5,7-dodecadien-1-yl propionate] | 37.1 ± 0.5% | 44.5 ± 0.6% | 44.8 ± 0.7% |  |  |  | Ki (DtabGOBP1 [1]; DtabGOBP1): 1.9 µM; binding affinity / displacement of 1-NPN (in words) (DtabGOBP1 [1]; DtabGOBP1): high binding affinities; Kd (DtabGOBP1 [1]; DtabGOBP1, calculated from IC50 of 1-NPN displacement, read-out: KD±SE): 1.9 ± 0.2 µM; Ki (DtabPBP1 [2]; DtabPBP1): 3.61 µM; binding affinity / displacement of 1-NPN (in words) (DtabPBP1 [2]; DtabPBP1): high binding affinities; Kd (DtabPBP1 [2]; DtabPBP1, calculated from IC50 of 1-NPN displacement, read-out: KD±SE): 3.6 ± 0.3 µM; Ki (DtabGOBP2 [3]; DtabGOBP2): 2.7 µM; binding affinity / displacement of 1-NPN (in words) (DtabGOBP2 [3]; DtabGOBP2): high binding affinities; Kd (DtabGOBP2 [3]; DtabGOBP2, calculated from IC50 of 1-NPN displacement, read-out: KD±SE): 2.7 ± 0.3 µM |
| (−)-limonene [(-)-Limonene] |  |  |  | 80.5±1.1% | 93.8±0.6% | 94.1±0.8% |  |
| C=CC(C)(O)CCC=C(C)C (stereo not shown) [Linalool, linalool] | 90.4 ± 0.9% | 90.4 ± 0.7% | 95.2 ± 0.6% |  |  |  |  |
| c1ccc(Nc2cccc3ccccc23)cc1 [1-NPN] |  |  |  |  |  |  | Kd (DtabPBP1 [4]; [13]): 12.5 ± 1.7 µM; effect of pH on affinity for 1-NPN (in words) (DtabPBP1 [4]; [14]): rapid loss of affinity in acidic conditions; Kd (DtabGOBP2 [5]; [13]): 8.5 ± 0.6 µM; effect of pH on affinity for 1-NPN (in words) (DtabGOBP2 [5]; [14]): rapid loss of affinity in acidic conditions; Kd (DtabGOBP1 [6]; [13]): 14.4 ± 2.6 µM; effect of pH on affinity for 1-NPN (in words) (DtabGOBP1 [6]; [14]): rapid loss of affinity in acidic conditions |
| CC1=CCC2C(C1)C2(C)C (single isomer, unassigned; (+)) [(+)-3-Carene, (+)-3-carene] |  |  |  | Abnormal | 85.3±1.7% | 84.3±0.9% | abnormal fluorescence binding curve (in words) (DtabGOBP1 [1]; DtabGOBP1): increased 1-NPN fluorescence |
| C=C1CCC2CC1C2(C)C (stereo not drawn) [(-)-β-Pinene, (−)-β-pinene] |  |  |  | 82.8±1.0% | 80.7±0.5% | 83.2±1.1% |  |
| C=C(C)C1CC=C(C)CC1 (single isomer, unassigned; (+)) [(+)-Limonene, (+)-limonene] |  |  |  | 78.2±1.1% | 94.4±0.4% | 88.0±1.3% |  |
| C=C1C2CCC(C2)C1(C)C (stereo not shown) [Camphene, camphene] |  |  |  |  |  |  | activity at 16 µM (DtabGOBP1 [1]; pH 7.4, read-out: %of max±SE): 96.7 ± 1.2%; activity at 16 µM (DtabPBP1 [2]; pH 7.4, read-out: %of max±SE): 96.5 ± 0.2%; activity at 16 µM (DtabGOBP2 [3]; pH 7.4, read-out: %of max±SE): 93.8 ± 0.7% |
| CCCC/C=C/C=C\CCCCOC(C)=O [Z5,E7-12:OAc, (5Z,7E)-5,7-dodecadien-1-yl acetate] | 67.9 ± 1.1% | 74.7 ± 1% | 66.2 ± 0.3% |  |  |  |  |
